From publication PMC9611727, “Optimization of a Novel Mandelamide-Derived Pyrrolopyrimidine Series of PERK Inhibitors” (Pharmaceutics, 2022)

Key:
PERK = biological target: T1, PERK (Homo sapiens, UniProt Q9NZJ5); test: PERK biochemical LanthaScreen TR-FRET assay (GFP-eIF2a phosphorylation); conditions: cell-free TR-FRET, GFP-eIF2a substrate; read-out: PERK IC50
T1 sequence (Q9NZJ5 30-1116): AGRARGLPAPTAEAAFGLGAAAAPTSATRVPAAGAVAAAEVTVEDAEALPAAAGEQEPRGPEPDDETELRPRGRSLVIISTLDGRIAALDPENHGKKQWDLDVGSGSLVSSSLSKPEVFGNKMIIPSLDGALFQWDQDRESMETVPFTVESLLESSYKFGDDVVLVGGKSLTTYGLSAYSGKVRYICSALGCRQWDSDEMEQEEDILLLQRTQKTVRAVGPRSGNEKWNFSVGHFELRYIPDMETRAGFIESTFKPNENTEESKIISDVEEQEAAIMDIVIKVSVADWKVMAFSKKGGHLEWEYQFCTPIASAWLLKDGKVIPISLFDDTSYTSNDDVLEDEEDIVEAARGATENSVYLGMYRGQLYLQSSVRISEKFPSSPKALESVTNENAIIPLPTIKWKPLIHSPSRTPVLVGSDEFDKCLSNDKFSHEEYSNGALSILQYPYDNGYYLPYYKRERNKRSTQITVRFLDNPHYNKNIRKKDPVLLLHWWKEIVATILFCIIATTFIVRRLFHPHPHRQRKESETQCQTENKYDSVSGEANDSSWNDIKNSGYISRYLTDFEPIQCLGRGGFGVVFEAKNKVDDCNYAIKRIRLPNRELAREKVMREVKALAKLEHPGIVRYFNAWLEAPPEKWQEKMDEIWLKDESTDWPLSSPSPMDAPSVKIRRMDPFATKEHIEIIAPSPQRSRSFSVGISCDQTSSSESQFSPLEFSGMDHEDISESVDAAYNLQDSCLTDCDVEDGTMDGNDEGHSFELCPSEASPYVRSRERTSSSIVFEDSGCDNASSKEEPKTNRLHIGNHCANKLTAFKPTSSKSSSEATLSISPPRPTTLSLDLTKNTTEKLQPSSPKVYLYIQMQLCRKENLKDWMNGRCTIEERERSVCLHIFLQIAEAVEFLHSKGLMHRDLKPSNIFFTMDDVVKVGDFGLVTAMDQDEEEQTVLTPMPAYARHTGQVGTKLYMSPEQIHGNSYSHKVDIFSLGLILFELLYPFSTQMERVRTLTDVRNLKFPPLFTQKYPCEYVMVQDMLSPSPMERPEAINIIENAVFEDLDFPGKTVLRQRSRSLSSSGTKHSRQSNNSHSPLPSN
Protocol: Methods used to evaluate biochemical PERK activity are described and published elsewhere. In brief, biochemical PERK activity is evaluated using a LanthaScreenTM ([…]) TR-FRET assay to detect phosphorylation of a GFP-tagged eIF2a substrate (ThermoFisher). Excitation at […] of a terbium chelate donor fluorophore in an eIF2a antibody results in energy transfer to GFP acceptor fluorophore upon eIF2a phosphorylation by PERK. Reaction buffer was composed of 50 mM HEPES (pH 7.4), 10 mM MgCl2, 1 mM EGTA and 0.01% (v/v) BrijTM-35. Reactions were initiated by the addition of substrate and ATP, followed by incubation for 1 h at RT prior to addition of EDTA and the anti-peIF2a antibody. FRET was measured by an EnVision Plate Reader (PerkinElmer). Data were plotted as percent inhibition along a 10-point 3-fold dilution series of inhibitors. IC50 values were calculated using 4-parameter logistical fitting in XLFit.
(§1) The PERK activity of analog I was evaluated using cell-free biochemical assays. In these assays, PERK phosphorylation of eIF2a was assessed using a FRET-based labelled protein assay. Compounds were then evaluated for cellular activity by quantifying inhibition of eIF2a phosphorylation in HEK293 cells treated with the ER inducer tunicamycin [7].

p-eIF2α = test: Cellular PERK inhibition: p-eIF2a TR-FRET in tunicamycin-treated HEK293-EGFP-eIF2a cells; format: cell-based; conditions: Homo sapiens; HEK293 cells, tunicamycin-induced ER stress; read-out: p-eIF2α IC50
Protocol: Methods used to evaluate in vitro cellular PERK inhibition are described and published elsewhere. In brief, stableHEK293 cells were created using lentiviral particles harboring a GFP-eIF2a expression vector. Transfectants were selected by puromycin and enriched using fluorescent cell sorting based on GFP expression. HEK293-EGFP-eIF2a cells were plated at 5000 cells/well in 384-well assay plates and incubated overnight. The following day, pyrrolopyrimidine analogs were added to wells using an Echo acoustic dispenser and incubated for 30 min. ER stress was induced by the addition of tunicamycin to the wells at […] for 2 h. Cells were lysed and peIF2a was evaluated using a TR-FRET system, as described above.
as §1

MOLM-13 (FLT3-ITD) = test: Cell viability assay, MOLM-13; format: cell-based; conditions: Homo sapiens
Kasumi-1 (FLT3wt) = test: Cell viability assay, Kasumi-1; format: cell-based; conditions: Homo sapiens

SMILES | IC50 (PERK) [nM] | IC50 (p-eIF2α) [nM] | IC50 (MOLM-13 (FLT3-ITD)) [nM] | IC50 (Kasumi-1 (FLT3wt)) [nM]
COc1cc(NC(=O)[C@H](O)c2cccc(F)c2)ccc1-c1cn(C)c2nc(C)nc(N)c12 [Compound 60] | 236 | 1850 |  | 
Cc1nc(N)c2c(-c3ccc(NC(=O)[C@H](O)c4cccc(Br)c4)cc3)cn(C)c2n1 [Compound 64] | 1.5 | 14 |  | 
Cc1nc(N)c2c(-c3c(C)cc(NC(=O)C(O)c4cccc(F)c4)cc3F)cn(C)c2n1 (centres unmarked) [Compound 67] | 22 | 78 |  | 
Cc1nc(N)c2c(-c3c(C)cc(NC(=O)C(O)c4cccc(F)c4)cc3C)cn(C)c2n1 (centres unmarked) [Compound 68] | 13 | 82 |  | 
Cc1nc(N)c2c(-c3ccc(NC(=O)[C@H](O)c4cccc(F)c4)c(F)c3)cn(C)c2n1 [Compound 69] | 1 | 26 |  | 
Cc1nc(N)c2c(-c3ccc(NC(=O)[C@H](O)c4cccc(C(F)(F)F)c4)nc3C)cn(C)c2n1 [Compound 73] | 13 | 51 |  | 
Cc1nc(N)c2c(-c3cnc(NC(=O)[C@H](O)c4cccc(F)c4)cc3C)cn(C)c2n1 [Compound 74] | 8.3 | 146 |  | 
Cc1nc(N)c2c(-c3cnc(NC(=O)[C@H](O)c4cccc(C(F)(F)F)c4)cc3C)cn(C)c2n1 [Compound 75] | 6.8 | 95 |  | 
CCc1nc(C(N)=O)c(Nc2ccc(N3CCC(N4CCN(C)CC4)CC3)c(OC)c2)nc1NC1CCOCC1 [Gilteritinib] |  |  | 14 | 478

More lines, main results first:

IC50 (PERK) [nM] | IC50 (p-eIF2α) [nM] | IC50 (MOLM-13 (FLT3-ITD)) [nM] | SMILES | IC50 (Kasumi-1 (FLT3wt)) [nM]
23 | 435 |  | Cc1nc(N)c2c(-c3ccc(NC(=O)[C@H](O)c4cccc(F)c4)cc3OC(F)(F)F)cn(C)c2n1 [Compound 61] | 
2 | 126 |  | Cc1nc(N)c2c(-c3ccc(NC(=O)[C@H](O)c4cccc(F)c4)cc3)cn(C)c2n1 [Compound 62] | 
2.8 | 13 |  | Cc1nc(N)c2c(-c3ccc(NC(=O)[C@H](O)c4cccc(C(F)(F)F)c4)cc3)cn(C)c2n1 [Compound 63] | 
1 | 34 |  | Cc1nc(N)c2c(-c3cc(F)c(NC(=O)C(O)c4cccc(F)c4)cc3F)cn(C)c2n1 (centres unmarked) [Compound 71] | 
17 | 105 |  | Cc1nc(N)c2c(-c3ccc(NC(=O)[C@H](O)c4cccc(F)c4)nc3C)cn(C)c2n1 [Compound 72] | 
647 | > 10000 |  | Cc1nc(N)c2c(-c3cnc(NC(=O)[C@H](O)c4cccc(F)c4)nc3C)cn(C)c2n1 [Compound 76] | 
 |  | 3 | CC1(COc2ccc3c(c2)ncn3-c2ccc3cccc(N4CCC(N)CC4)c3n2)COC1 [Crenolanib] | 80
